Values belong to the molecule of their own block, whether it stands above or below them.
Tests used:
BGC-823 [1] = test: Antiproliferative activity against human BGC-823 cells assessed as inhibition of cell growth incubated for 72 hrs by MTT assay; format: functional, cell-based; details: BGC-823, 72 h
MGC-803 [2] = test: Antiproliferative activity against human MGC-803 cells assessed as inhibition of cell growth incubated for 72 hrs by MTT assay; format: functional, cell-based; details: MGC-803, 72 h
SGC-7901 [3] = test: Antiproliferative activity against human SGC-7901 cells assessed as inhibition of cell growth incubated for 72 hrs by MTT assay; format: functional, cell-based; details: SGC-7901, 72 h
MGC-803 [4] = test: Antitumor activity against human MGC-803 cells xenografted in BALB/c nude mouse model assessed as inhibition of tumor growth at 60 mg/kg, IG administered daily for 21 days relative to control; format: functional; details: MGC-803, po, 504 h, time 21 day
BGC-823 [5] = test: Potency index, ratio of 5-fluorouracil IC50 to test compound IC50 for antiproliferative activity against human BGC-823 cells assessed as inhibition of cell growth incubated for 72 hrs by MTT assay; format: functional
MGC-803 [6] = test: Potency index, ratio of 5-fluorouracil IC50 to test compound IC50 for antiproliferative activity against human MGC-803 cells assessed as inhibition of cell growth incubated for 72 hrs by MTT assay; format: functional
SGC-7901 [7] = test: Potency index, ratio of 5-fluorouracil IC50 to test compound IC50 for antiproliferative activity against human SGC-7901 cells assessed as inhibition of cell growth incubated for 72 hrs by MTT assay; format: functional
A549 [8] = test: Antiproliferative activity against human A549 cells assessed as inhibition of cell growth by MTT assay; format: functional, cell-based
[9] = Antiproliferative activity against human IMR-90 cells assessed as inhibition of cell growth by MTT assay; format: toxicity, cell-based
A549 [10] = test: Antitumor activity against human A549 cells xenografted in zebrafish model assessed as reduction in tumor focal area at 2.5 uM relative to control; format: functional; design: scale not given: the % may be the effect or the level left
[11] = Antiproliferative activity against BCRP-mediated Topotecan-resistant HEK293/R2 cells assessed as inhibition of cell growth incubated for 5 days by MTS assay; format: functional, cell-based; details: Homo sapiens, HEK293/R2, 120 h
[12] = Antiproliferative activity against BCRP-mediated human Topotecan-resistant MCF7/MX100 cells assessed as inhibition of cell growth incubated for 5 days by MTS assay; format: functional, cell-based; details: MCF7/MX100, 120 h
[13] = Antiproliferative activity against BCRP-mediated human Topotecan-resistant S1M180 cells assessed as inhibition of cell growth incubated for 5 days by MTS assay; format: functional, cell-based; details: 120 h
[14] = Antiproliferative activity against BCRP-mediated human Doxorubicin-resistant S1M180 cells assessed as inhibition of cell growth incubated for 5 days by MTS assay; format: functional, cell-based; details: S1-M1-80, 120 h
[15] = Antiproliferative activity against […]-mediated human Doxorubicin-resistant 2008/MRP1 cells assessed as inhibition of cell growth incubated for 5 days by MTS assay; format: functional, cell-based, Doxorubicin-resistant 2008/MRP1 cell; details: 2008/MRP1, 120 h
[16] = AUC(0 to infinity) in BALB/c mouse at 45 mg/kg, ip measured up to 24 hrs; format: ADME, organism-based; design: dose 45 mg/kg, time < 24 hrs, route ip; details: in vivo
[17] = Tmax in BALB/c mouse at 45 mg/kg, ip measured up to 24 hrs; format: ADME, organism-based; details: in vivo
[18] = Cmax in BALB/c mouse at 45 mg/kg, ip measured up to 24 hrs; format: ADME, organism-based; design: time < 24 hrs, dose 45 mg/kg, route ip; details: in vivo
[19] = Half life in BALB/c mouse at 45 mg/kg, ip measured up to 24 hrs; format: ADME, organism-based; details: in vivo
[20] = Antitumor activity against human Topotecan-resistant S1M180 cells over expressing BCRP xenografted in BALB/c nude mouse model assessed as reduction in tumor volume at 45 mg/kg, ip administered every 2 days for 6 times relative to control; format: functional, Topotecan-resistant S1M180 cell; design: scale not given: the % may be the effect or the level left; details: time 12 day
[21] = Antitumor activity against human Topotecan-resistant S1M180 cells over expressing BCRP xenografted in BALB/c nude mouse model assessed as fold change in topotecan level at 45 mg/kg, ip administered every 2 days for 6 times relative to control; format: functional, Topotecan-resistant S1M180 cell; details: time 12 day
Hep 3B2 = test: Antiproliferative activity against human Hep3B cells assessed as inhibition of cell growth incubated for 72 hrs by MTT assay; format: functional, cell-based
HepG2 [22] = test: Antiproliferative activity against human HepG2 cells assessed as inhibition of cell growth incubated for 72 hrs by MTT assay; format: functional, cell-based; details: HepG2, 72 h
H22 [23] = test: Antitumor activity against […] cells xenografted in BALB/c mouse model assessed as inhibition of tumor growth at 15 mg/kg, ip administered every 2 days for 15 days relative to control; format: functional; details: H22, 360 h, time 15 day
H22 [24] = test: Antitumor activity against […] cells xenografted in BALB/c mouse model assessed as inhibition of tumor growth at 45 mg/kg, ip administered every 2 days for 15 days relative to control; format: functional; details: H22, 360 h, time 15 day
NCI-H460 = test: Antiproliferative activity against human NCI-H460 cells assessed as inhibition of cell growth by MTT assay; format: functional, cell-based
SGC-7901 [25] = test: Antiproliferative activity against human SGC-7901 cells assessed as inhibition of cell growth by MTT assay; format: functional, cell-based
Bel-7402 = test: Antiproliferative activity against human Bel-7402 cells assessed as inhibition of cell growth by MTT assay; format: functional, cell-based
HepG2 [26] = test: Antiproliferative activity against human HepG2 cells assessed as inhibition of cell growth by MTT assay; format: functional, cell-based
MDA-MB-231 = test: Antiproliferative activity against human MDA-MB-231 cells assessed as inhibition of cell growth by MTT assay; format: functional, cell-based
HT-29 = test: Antiproliferative activity against human HT-29 cells assessed as inhibition of cell growth by MTT assay; format: functional, cell-based
A549/TR = test: Antiproliferative activity against taxol-resistant human A549/Taxol cells assessed as inhibition of cell growth by MTT assay; format: functional, cell-based
A549 [27] = test: Antitumor activity against human A549 cells xenografted in BALB/c nude mouse model assessed as inhibition of tumor growth at 80 mg/kg, ip administered every other day for 7 times relative to control; format: functional
MCF7 = test: cells; details: Homo sapiens
4T1 = test: Antitumor activity against mouse 4T1 cells implanted mouse model assessed as inhibition of tumor growth at 15 mg/kg, ip relative to control; format: functional

IC50 (BGC-823 [1]): 400 nM | IC50 (MGC-803 [2]): 3400 nM | IC50 (SGC-7901 [3]): 3500 nM
SMILES: Cc1cc(=O)oc2cc(OCc3cn(-c4ccc(S(N)(=O)=O)cc4)nn3)ccc12
inhibition in vivo at 60 mg/kg (MGC-803 [4]): 64.2% | Ratio IC50 (BGC-823 [5]): 4.1 | Ratio IC50 (MGC-803 [6]): 4.1 | Ratio IC50 (SGC-7901 [7]): 4.1

IC50 (A549 [8]): 2270 nM
SMILES: COc1cc(/C=C/C(=O)C(Cc2cn(Cc3ccc(Cl)c(Cl)c3)nn2)C(=O)/C=C/c2ccc(O)c(OC)c2)ccc1O
IC50 [9]: > 100000 nM | Activity (A549 [10]): 39.07%

AUC(0-inf) [16]: 83500 ng·h/mL | Tmax [17]: 3 h | Cmax [18]: 15700 ng/mL | half-life [19]: 10.6 h
SMILES: COC(=O)c1cccc(COc2c(-c3ccc(OCCOCCc4cn(CN(Cc5ccccc5)Cn5cc(CCOCCOc6ccc(-c7oc8ccccc8c(=O)c7OCc7cccc(C(=O)OC)c7)cc6)nn5)nn4)cc3)oc3ccccc3c2=O)c1
EC50 [11]: 3.3 nM | EC50 [12]: 3.3 nM | EC50 [13]: 3.3 nM | EC50 [14]: 3.3 nM | EC50 [15]: 3.3 nM | Activity [20]: 40% | fold change (FC) [21]: 2

IC50 (HepG2 [22]): 59.6 nM
SMILES: COc1cc(C(=O)c2nn(-c3ccccc3)nc2N2CCC(N)CC2)cc(OC)c1OC
IC50 (Hep 3B2): 40.9 nM | inhibition in vivo at 15 mg/kg (H22 [23]): 66% | inhibition in vivo at 45 mg/kg (H22 [24]): 82%

IC50 (NCI-H460): 65.4 nM | IC50 (A549 [8]): 63 nM | IC50 (SGC-7901 [25]): 63 nM | IC50 (Bel-7402): 65.4 nM | IC50 (HepG2 [26]): 65.4 nM | IC50 (MDA-MB-231): 65.4 nM | IC50 (HT-29): 65.4 nM | IC50 (A549/TR): 65.4 nM | IC50 (MCF7): 63 nM
SMILES: COc1cc(C(=O)c2nn(-c3ccccc3F)nc2N2CC(O)C2)cc(OC)c1OC
inhibition in vivo at 80 mg/kg (A549 [27]): 60%

IC50 (MCF7): 3200 nM
SMILES: Clc1ccc(N/N=C/c2cn(-c3cc(Cl)cc(Cl)c3)nn2)cc1
inhibition in vivo at 15 mg/kg (4T1): > 60%

From ChEMBL document CHEMBL5360538, “Recent updates on 1,2,3-triazole-containing hybrids with in vivo therapeutic potential against cancers: A mini-review” (Eur J Med Chem, 2023)
